Test results published in DBAASP.
≈ marks a conversion by molar mass, not a printed value. Where “and” joins values, the source holds several entries; their conditions need not be identical. Equal values may be shown once.

Experiments:
Assay in all cases: ≥ marks a high value that may be exact or a test limit, other limits are often not marked, values filed in µg/mL are converted to µM
[1] = tested on: Escherichia coli ATCC 25922
Staphylococcus aureus = tested on: Staphylococcus aureus
[2] = tested on: Staphylococcus aureus ATCC 25923

| SMILES | MIC [1] | MIC (Staphylococcus aureus) | MIC [2] |
| --- | --- | --- | --- |
| CC[C@H](C)[C@H](NC(=O)[C@H](CCCCN)NC(=O)[C@H](CC(C)C)NC(=O)[C@@H](NC(=O)[C@H](CCCCN)NC(=O)[C@H](C)N)C(C)C)C(=O)N[C@@H](CO)C(=O)N[C@@H](CCCN=C(N)N)C(=O)N[C@@H](CCCN=C(N)N)C(=O)N[C@@H](C)C(=O)N[C@@H](Cc1ccccc1)C(=O)N[C@@H](CCCN=C(N)N)C(=O)N[C@@H](CCCCN)C(N)=O [AKVLKISRRAFRK] | 22.5 µM and 63.6 µM | – | – |
| CC(C)[C@H](NC(=O)[C@H](CC(N)=O)NC(=O)[C@H](CCCCN)NC(=O)[C@H](CCCN=C(N)N)NC(=O)[C@@H]1CCCN1C(=O)[C@H](C)N)C(=O)N[C@@H](CCCN=C(N)N)C(=O)N[C@@H](Cc1ccccc1)C(=O)O [APRKNVRF] | 130 µM (≈ 128 µg/mL) | – | – |
| CC[C@H](C)[C@H](NC(=O)[C@H](C)NC(=O)[C@H](CO)NC(=O)[C@@H](NC(=O)[C@@H](N)Cc1ccccc1)[C@@H](C)CC)C(=O)N[C@@H](C)C(=O)N[C@@H](CO)C(=O)N[C@@H](Cc1ccccc1)C(=O)N[C@@H](CC(C)C)C(=O)NCC(=O)N[C@@H](CCCCN)C(=O)N[C@@H](Cc1ccccc1)C(=O)N[C@@H](CC(C)C)C(=O)O [FISAIASFLGKFL] | – | 130 µM (≈ 184 µg/mL) | – |
| CC(C)C[C@H](NC(=O)[C@H](CC(C)C)NC(=O)[C@H](CCCCN)NC(=O)[C@H](CCCCN)NC(=O)[C@H](CC(C)C)NC(=O)[C@H](Cc1c[nH]c2ccccc12)NC(=O)[C@H](CCCCN)NC(=O)[C@H](CC(C)C)NC(=O)[C@@H](N)Cc1ccccc1)C(N)=O [FLKWLKKLL] | 6.73 µM and 13.5 µM | – | – |
| CC[C@H](C)[C@H](NC(=O)[C@H](CCCN=C(N)N)NC(=O)[C@H](CCCCN)NC(=O)[C@H](CC(C)C)NC(=O)[C@H](C)NC(=O)CN)C(=O)N[C@@H](CCCCN)C(=O)N[C@H](C(=O)N[C@@H](CC(C)C)C(=O)N[C@@H](CC(C)C)C(N)=O)[C@@H](C)O [GALKRIKTLL] | > 38.7 µM | – | > 38.7 µM |
| CC[C@H](C)[C@H](NC(=O)[C@H](CCCN=C(N)N)NC(=O)[C@H](CCCCN)NC(=O)[C@H](CC(C)C)NC(=O)[C@H](CCSC)NC(=O)CN)C(=O)N[C@@H](CCCCN)C(=O)N[C@H](C(=O)N[C@@H](CC(C)C)C(=O)N[C@@H](CC(C)C)C(N)=O)[C@@H](C)O [GMLKRIKTLL] | 200 µM (≈ 234 µg/mL) | – | – |
| C[C@@H](O)[C@H](NC(=O)[C@H](CO)NC(=O)[C@H](CO)NC(=O)[C@@H](N)CCCCN)C(=O)N[C@@H](CCCN=C(N)N)C(=O)NCC(=O)N[C@@H](CCCN=C(N)N)C(=O)N[C@@H](CCCCN)C(=O)N[C@@H](CO)C(=O)N[C@@H](CO)C(=O)N[C@@H](CCCN=C(N)N)C(=O)N[C@@H](CCCN=C(N)N)C(=O)N[C@@H](CCCCN)C(=O)N[C@@H](CCCCN)C(=O)O [KSSTRGRKSSRRKK] | 120 µM (≈ 200 µg/mL) | – | > 308 µM |

Now from value to compound:

| MIC [1] | MIC (Staphylococcus aureus) | MIC [2] | SMILES |
| --- | --- | --- | --- |
| 16 µM (≈ 16 µg/mL) | – | – | CC(C)C[C@H](NC(=O)[C@H](CCC(N)=O)NC(=O)[C@H](CCCCN)NC(=O)[C@H](CCCCN)NC(=O)[C@@H]1CCCN1C(=O)[C@H](C)N)C(=O)N[C@@H](CCCCN)C(=O)N[C@@H](Cc1c[nH]c2ccccc12)C(=O)O [APKKQLKW] |
| 64.1 µM (≈ 64 µg/mL) | – | – | CC(C)[C@H](NC(=O)[C@H](CC(N)=O)NC(=O)[C@H](CCCCN)NC(=O)[C@H](CCCN=C(N)N)NC(=O)[C@@H]1CCCN1C(=O)[C@H](C)N)C(=O)N[C@@H](CCCCN)C(=O)N[C@@H](Cc1c[nH]c2ccccc12)C(=O)O [APRKNVKW] |
| 2 µM (≈ 6.36 µg/mL) | – | – | CC[C@H](C)[C@H](NC(=O)CN)C(=O)N[C@@H](Cc1ccccc1)C(=O)N[C@@H](CC(C)C)C(=O)N[C@@H](CC(=O)O)C(=O)N[C@@H](CCCCN)C(=O)N[C@@H](CC(C)C)C(=O)N[C@@H](CCCCN)C(=O)N[C@@H](CC(N)=O)C(=O)N[C@@H](Cc1ccccc1)C(=O)N[C@@H](C)C(=O)N[C@@H](CCCCN)C(=O)NCC(=O)N[C@H](C(=O)N[C@@H](C)C(=O)N[C@@H](CCC(N)=O)C(=O)N[C@@H](CO)C(=O)N[C@@H](CC(C)C)C(=O)N[C@@H](CC(C)C)C(=O)N[C@@H](CC(N)=O)C(=O)N[C@@H](CCCCN)C(=O)N[C@@H](C)C(=O)N[C@@H](CO)C(=O)N[C@H]1CSSC[C@@H](C(=O)O)NC(=O)[C@H](CCC(N)=O)NC(=O)CNC(=O)[C@H](CO)NC(=O)[C@H](CC(C)C)NC(=O)[C@H](CCCCN)NC1=O)C(C)C [GIFLDKLKNFAKGVAQSLLNKASCKLSGQC] |
| 14.6 µM (≈ 16 µg/mL) | – | 25.5 µM (≈ 28 µg/mL) | CC[C@H](C)[C@H](NC(=O)[C@H](CCCN=C(N)N)NC(=O)[C@H](C)NC(=O)[C@H](CC(C)C)NC(=O)[C@H](CC(C)C)NC(=O)CN)C(=O)N[C@@H](CCCCN)C(=O)N[C@H](C(=O)N[C@@H](CC(C)C)C(=O)N[C@@H](CC(C)C)C(N)=O)[C@@H](C)O [GLLARIKTLL] |
| 30.6 µM (≈ 34 µg/mL) | – | 62 µM (≈ 68.9 µg/mL) | CC[C@H](C)[C@H](NC(=O)[C@H](CC(N)=O)NC(=O)[C@H](CCCCN)NC(=O)[C@H](CC(C)C)NC(=O)[C@H](CC(C)C)NC(=O)CN)C(=O)N[C@@H](CCCCN)C(=O)N[C@H](C(=O)N[C@@H](CC(C)C)C(=O)N[C@@H](CC(C)C)C(N)=O)[C@@H](C)O [GLLKNIKTLL] |
| 6.3 µM (≈ 13.8 µg/mL) | – | – | CC[C@H](C)[C@H](NC(=O)[C@H](C)NC(=O)CNC(=O)[C@H](C)NC(=O)[C@H](CCCCN)NC(=O)[C@H](CO)NC(=O)[C@H](C)NC(=O)[C@H](CCSC)NC(=O)CN)C(=O)N[C@@H](C)C(=O)NCC(=O)N[C@@H](CCCCN)C(=O)N[C@H](C(=O)N[C@@H](C)C(=O)N[C@@H](CCCCN)C(=O)N[C@H](C(=O)N[C@@H](C)C(=O)N[C@@H](CC(C)C)C(=O)N[C@@H](CCCCN)C(=O)N[C@@H](C)C(=O)N[C@@H](CC(C)C)C(=O)NCC(=O)NCC(=O)N[C@@H](CS)C(N)=O)C(C)C)[C@@H](C)CC [GMASKAGAIAGKIAKVALKALGGC] |
| 12.5 µM (≈ 28 µg/mL) | – | – | CC[C@H](C)[C@H](NC(=O)[C@H](C)NC(=O)CNC(=O)[C@H](C)NC(=O)[C@H](CCCCN)NC(=O)[C@H](CO)NC(=O)[C@H](C)NC(=O)[C@H](CCSC)NC(=O)CN)C(=O)N[C@@H](C)C(=O)NCC(=O)N[C@@H](CCCCN)C(=O)N[C@H](C(=O)N[C@@H](C)C(=O)N[C@@H](CCCCN)C(=O)N[C@H](C(=O)N[C@@H](C)C(=O)N[C@@H](Cc1c[nH]c2ccccc12)C(=O)N[C@@H](CCCCN)C(=O)N[C@@H](C)C(=O)N[C@@H](CC(C)C)C(=O)NCC(=O)NCC(=O)N[C@@H](CO)C(N)=O)C(C)C)[C@@H](C)CC [GMASKAGAIAGKIAKVAWKALGGS] |
| 8 µM (≈ 16.5 µg/mL) | – | – | CC(C)C[C@H](NC(=O)[C@H](Cc1ccccc1)NC(=O)[C@@H]1CCCN1C(=O)[C@H](Cc1c[nH]c2ccccc12)NC(=O)[C@H](Cc1c[nH]c2ccccc12)NC(=O)[C@H](Cc1c[nH]c2ccccc12)NC(=O)[C@@H]1CCCN1C(=O)[C@H](Cc1ccccc1)NC(=O)[C@H](CCCN=C(N)N)NC(=O)[C@H](CCCN=C(N)N)NC(=O)[C@@H](NC(=O)[C@@H](NC(=O)CN)[C@@H](C)O)C(C)C)C(=O)N[C@@H](CCCN=C(N)N)C(=O)N[C@@H](CCCN=C(N)N)C(=O)O [GTVRRFPWWWPFLRR] |
| 1.79 µM (≈ 2 µg/mL) | – | – | CC(C)C[C@H](NC(=O)[C@H](CCC(N)=O)NC(=O)[C@H](CCCCN)NC(=O)[C@H](CCCN=C(N)N)NC(=O)[C@H](Cc1ccccc1)NC(=O)[C@@H](N)CC(C)C)C(=O)N[C@@H](CCCCN)C(=O)N[C@@H](Cc1c[nH]c2ccccc12)C(=O)O [LFRKQLKW] |
